Broadly, the EC50 is the concentration at which the effect is half-maximal. Low readings indicate higher potency in that assay, high ones lower potency in that assay.

This note sets out measurements from patent US12012375B2, “Prostaglandin F2 alpha derivatives for decreasing intraocular pressure” (GURUS BIOPHARM LIMITED LIABILITY COMPANY, priority 2018, dated 2024).

In data set [1] the test system is 3T3-L1 cells. The data set is described as follows: Nitric oxide generation (modified Griess method). Type of data set: cell-based, mice. To be noted: for NO generation, % to control: mice 3T3-L1 cells, concentration of 100 μM, 20 hours. As to the method:
3T3-L1 cells were incubated at 95% humidity, in the 5% CO2 atmosphere, at 37° C. Cultivation was performed in DMEM medium comprising 7% FCS, 2 mM of glutamine, 100 U/ml of penicillin, 100 μg/ml of streptomycin and 0.25 μg/ml of amphotericin B. Cells were subcultured every 48-72 hours. For the purpose of suspending the cells were incubated in Versene's solution within 2-3 minutes and in Trypsin-EDTA solution (0.25%).
Cells were inoculated by 30 thousand into wells (monolayer) of 96-well plate in 100 μl of medium. Incubation with substances lasted 20 hours. After that, medium aliquot was sampled from each well, and NO concentration was determined by modified Griess method. 12.5 μl of 0.04% sulfanilamide water solution were added to 75 μl of test medium in wells of 96-well plate for EIA, held within 10 minutes at room temperature protected from light, then, 12.5 μl of 2% naphthylethylenediamine solution in 3M of HCl were added, held again for 10 minutes at room temperature protected from light, then the optical absorption was determined at the wavelength of 540 nm.
A general note: Griess reagent forms a coloured azo dye with nitrite.

In data set [2] the test system is 3T3-L1 cells. The data set is described as follows: Cytotoxicity, MTT assay of cell survival. In kind it is cell-based. To be noted: cultivated mice 3T3-L1 cells, 24 hours incubation. As to the method: (§1) 3T3-L1 cells were incubated at 95% humidity, in the 5% CO2 atmosphere, at 37° C. Cultivation was performed in DMEM medium comprising 7% FCS, 2 mM of glutamine, 100 U/ml of penicillin, 100 μg/ml of streptomycin and 0.25 μg/ml of amphotericin B. Cells were subcultured every 48-72 hours. For the purpose of suspending the cells were incubated in Versene's solution within 1 minute and in Trypsin-EDTA solution within 1 minute (0.25%).
(§2) Cells were inoculated by 30 thousand into wells of 96-well plate (monolayer) in 100 μl of medium for MTT-test. After 24 hours of cultivation 100 μl of test substances in the medium used for cell culture were added to the cells with replacement of culture medium with a new one. Cells were incubated with test substances for 24 hours. Cells, to which 100 μl of medium used for cell culture were added to, were used as […].
(§3) Assessment of cell survival in the culture using the MTT assay After the incubation, the medium was removed from each well, and then 100 μl of MTT solution were added to each well (0.5 mg/ml of MTT, 3.5 mg/ml of D-glucose in Hanks' solution). The plate was placed into CO2-incubator (Ependorf, Germany) for 1.5 h. After that, MTT was removed and 100 μl of DMSO were added to each well and mixed for 2 minutes in a shaker at 550 rpm. Then, the solution optical density was determined at the wavelength of 576 nm and 620 nm using a plate reader (EFOS 9305, OAO MZ Sapphir).
In general terms: Tetrazolium assays rely on reduction of a dye to a coloured formazan, in cell work by metabolically active cells.

The subject of a further data set is normotensive rabbits. The data set is described as follows: Reducing intraocular pressure after instillation in normotensive rabbits. Type of data set: in vivo, chinchilla rabbits. The following applies: for IOP reduction: single instillation of 2 drops into both eyes, maximum value of 5 animals' average data within 6 hours. As to the method: The study was performed on chinchilla rabbits with a mass of 2.5-3 kg. IOP was measured by automatic manual veterinary tonometer Tonovet (Icare, Finland).
2 groups of rabbets were used for testing each sample:
5 animals instilled with a single dose of sample into both eyes.
5 animals instilled with a single dose of normal saline into both eyes.
All test samples were instilled by 2 drops by a disposable pipette. IOP was measured before instillation and further, every hour within 6 hours. All tested substances were capable of reducing intraocular pressure in normotensive rabbits.

Data set [3] is described as follows: Cytotoxicity, MTT assay of cell survival. Type of data set: cell-based. To be noted: mouse, cultivated mice 3T3-L1 cells, 24 hours incubation. Here is the method: as §1, §2, §3
In data set [4] the test system is 3T3-L1 cells. The data set is described as follows: Increase of intracellular calcium concentration (Calcium Green fluorescence). Type of data set: cell-based, mice. To be noted: 67 μM stated for the reference substances, for 10 minutes. As to the method:
3T3-L1 cells were cultivated in DMEM medium with addition of 10% fetal calf serum (FCS), 4 mM of L-glutamine, 100 U/ml of penicillin, 100 μg/ml of streptomycin, 2.5 μg/ml of amphotericin B. Cells were cultured in the atmosphere of 5% CO2, 95% humidity at 37° C. Cell density at the time of experiment was 7000 per well of a 96-well plate, Calcium Green dye (1.5 mM, loading in 0.4% Pluronic F-62 in incubation medium without BSA for 1 hour at 37° C., triple washing of 200 μl of incubation medium after loading), incubation medium: Hanks' solution, 1 g/l of D-glucose, 1 mg/ml of fat-free BSA, introduction of substances in ethanol (<0.5% final concentration), incubation at 25° C., detecting at the excitation wavelength 485 nm, emission wavelength 535 nm.
A general note: A change in cytosolic calcium serves as a functional read-out for many receptors and channels.

As for `CCCCCC(O)C=CC1C(O)CC(O)C1CC=CCCCC(=O)NC(CO)C(=O)O` [Compound 2, Prostaglandin F2α Amide with L-Serine], the “NO generation, % to control” value in the data set on 3T3-L1 cells [1] was found to be 25%. For the same compound, in the data set with 3T3-L1 cells [2], the concentration giving a half-maximal response (EC50) is above 200 µM.
For the compound `CCCCC[C@H](O)/C=C/[C@@H]1[C@@H](C/C=C\CCCC(=O)NC2CC2)[C@@H](O)C[C@H]1O` [Compound 6, Prostaglandin F2α Amide with Cyclopropylamine], in the data set with normotensive rabbits, the “ability to reduce intraocular pressure (in words)” value is on record as “more prominent” and the IOP reduction was 3.30 mm Hg. Moreover, the “NO generation, % to control” value in the data set with 3T3-L1 cells [1] is on record as 5%. The compound also came in with an EC50 in the data set with 3T3-L1 cells [2] of 124 ± 2 µM.
With `CCCCCC(O)C=CC1C(O)CC(O)C1CC=CCCCC(=O)N1CCCC1CO` [Compound 7, Prostaglandin F2a Amide with L-Prolinol], the “NO generation, % to control” value with 3T3-L1 cells [1] was found to be 15%. Also, the concentration for a half-maximal effect (EC50) in the data set on 3T3-L1 cells [2] came out at 104 ± 2 µM.
In the data set on normotensive rabbits, `CCCCC[C@H](O)/C=C/[C@@H]1[C@@H](C/C=C\CCCC(=O)NCCOC(=O)NCCO[N+](=O)[O-])[C@@H](O)C[C@H]1O` [Compound 11, Prostaglandin F2α Amide with 2-Aminoethyl-[2-(Nitroxy)Ethyl]Carbamate] returned an IOP reduction of 1.50 mm Hg. In the data set with 3T3-L1 cells [1], the “NO generation, % to control” value was determined as 28%. The compound further gave an EC50 at 24 h in data set [3] of 184 ± 3 µM.
Regarding `CCCCC[C@H](O)/C=C/[C@@H]1[C@@H](C/C=C\CCCC(=O)NCCO)[C@@H](O)C[C@H]1O` [prostamide F2, prostaglandin F2α ethanolamide], the “calcium sensor fluorescence increase relative to control” value in the data set with 3T3-L1 cells [4] was found to be 185 AU.
The compound “Prostaglandin F2α Amide with L-Nitroserine Isopropyl Ether [Compound 5]” registered an IOP reduction in the data set with normotensive rabbits of 1.20 mm Hg. Further, a half-maximal effect with 3T3-L1 cells [2] (EC50) was put at 195 ± 2 µM.
For the compound “Prostaglandin F2α Amide with L-Nitroserine [Compound 1]”, in the data set with 3T3-L1 cells [1], the “NO generation, % to control” value was determined as 7%. This compound also yielded an EC50 with 3T3-L1 cells [2] of 226.4 ± 2 µM.
Take “Prostaglandin F2α Amide with L-Serine Isopropyl Ether [Compound 3]”: in the data set with normotensive rabbits, the “ability to reduce intraocular pressure (in words)” value is reported as “more prominent” and the IOP reduction worked out at 3.20 mm Hg. The “calcium sensor fluorescence increase relative to control” value in the data set on 3T3-L1 cells [4] was determined as 405 AU. Moreover, in the data set with 3T3-L1 cells [1] (3T3-L1 cells, 25 μM), the “nitric oxide level increase relative to control” value worked out at 60%. In the data set with 3T3-L1 cells [1] (3T3-L1 cells, tested 25 to 100 μM), the “concentration of maximum activity (most effective concentration) for induction of nitrogen oxide generation” value was determined as 25 µM. Moreover, the “NO generation, % to control” value in the data set on 3T3-L1 cells [1] turned out to be 15%. This compound came in with an EC50 in the data set on 3T3-L1 cells [2] of 144 ± 3 µM.
Compound “Prostaglandin F2α Amide with γ-Aminobutyric Acid Nitroethanolamide [Compound 8]” yielded an IOP reduction in the data set with normotensive rabbits of 2.00 mm Hg. The “NO generation, % to control” value in the data set on 3T3-L1 cells [1] was determined as 22%.
Consider prostaglandin F2α, for which, in the data set on 3T3-L1 cells [4], the “calcium sensor fluorescence increase relative to control” value is given as 195 AU.
